Measurements from patent publication US10371707B1, “System and methods for bilirubin analysis” (Neolight LLC, priority 2017, dated 2019).
Structures can show the parent of a compound that is named as a salt.

Tests used:
Human serum albumin = target: T1, Human serum albumin (Homo sapiens, UniProt P02768); assay: Binding to albumin and displacement of bilirubin by bromophenol blue, assessed by cyclic voltammetry; details: for binding affinity to albumin (in words): inferred from voltammetric results; for effect of binding to albumin on electrochemical oxidation of the ligand: mixed with albumin, cyclic voltammetry; for peak current of liberated unconjugated bilirubin (peak at 0.15V): unconjugated bilirubin + albumin + bromophenol blue
T1 construct: purchased Sigma Aldrich, UK
Description: (§1) All electrochemical experiments were performed on screen-printed carbon electrodes with an Ag/AgCl reference electrode in a 3-electrode mode of operation. Cyclic Voltammetry parameters were controlled via a computational program; scan rate: 0.1 V/s, start potential: −0.5V, switch potential: 0.9V, end potential: −0.5V.
(§2) Deionized water (resistivity 18.2MΩ cm) was used in the preparation of solutions. Bilirubin was dissolved in 0.05M sodium hydroxide to prepare 1 mM stock and gently vortexed till homogenously mixed. This stock solution was then diluted using 0.05 M Tris-HCl (pH 8.5) to the desired working concentration. […] Bromophenol blue was prepared in 0.05M Tris-HCl (pH 8.5). Conjugated bilirubin was dissolved in 0.05M Tris-HCl (pH 8.5) and mixed till homogenous. All tubes containing bilirubin were protected from light.
Surfactants, caffeine, sodium benzoate and fatty acids are common solubilizing agents.
As with unconjugated bilirubin, bromophenol blue was used a competitive binding ligand for the displacement of conjugated bilirubin.

[1] = Cyclic voltammetry, direct electro-oxidation on screen-printed carbon electrodes; assay type: physicochemical; details: for anodic peak Epa: first/characteristic anodic peak, carbon electrodes, Ag/AgCl reference, scan rate 0.1 V/s, 0.05M Tris-HCl pH 8.5
Description: as §1, §2
Regarding the detection of unbound unconjugated bilirubin, it was diluted to a physiologically relevant concentration (100 μM) and analyzed by cyclic voltammetry.

albumin = target: T2, albumin (Homo sapiens, UniProt P02768); details: within human plasma; cited from earlier work
T2 construct: host or cells: human plasma
T2 sequence (P02768 25-609): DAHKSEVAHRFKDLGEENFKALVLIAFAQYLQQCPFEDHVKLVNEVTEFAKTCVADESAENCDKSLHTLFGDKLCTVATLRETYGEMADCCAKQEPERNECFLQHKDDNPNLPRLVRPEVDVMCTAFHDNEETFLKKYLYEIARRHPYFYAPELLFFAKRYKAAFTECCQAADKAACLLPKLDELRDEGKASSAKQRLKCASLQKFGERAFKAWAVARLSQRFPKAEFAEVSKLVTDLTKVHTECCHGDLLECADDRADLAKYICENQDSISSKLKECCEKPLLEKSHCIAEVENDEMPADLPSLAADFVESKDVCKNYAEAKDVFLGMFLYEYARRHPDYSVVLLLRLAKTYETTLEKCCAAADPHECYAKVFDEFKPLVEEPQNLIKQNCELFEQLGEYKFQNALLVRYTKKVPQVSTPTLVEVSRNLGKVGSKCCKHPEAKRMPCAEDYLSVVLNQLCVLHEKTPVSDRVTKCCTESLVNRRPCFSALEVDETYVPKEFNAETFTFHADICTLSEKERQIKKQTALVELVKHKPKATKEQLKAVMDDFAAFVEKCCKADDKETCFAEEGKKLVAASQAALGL

T1 sequence (P02768 25-609): as above

Row | Structure (SMILES) | displacement of conjugated bilirubin from albumin (Human serum albumin; conjugated bilirubin, albumin, bromophenol blue at 1:1:1 ratio) | displacement of unconjugated bilirubin from albumin (Human serum albumin; equal concentration ratios of unconjugated bilirubin, albumin and bromophenol blue) | binding affinity to albumin (in words) (Human serum albumin) | effect of binding to albumin on electrochemical oxidation of the ligand (Human serum albumin) | peak current of liberated unconjugated bilirubin (peak at 0.15V) (Human serum albumin; bromophenol blue concentration increased threefold) [μA] | peak current of liberated unconjugated bilirubin (peak at 0.15V) (Human serum albumin; bromophenol blue concentration increased two-fold) [μA] | anodic peak Epa [1] [V] | third anodic peak ([1]; cyclic voltammetry, same set-up) [V] | secondary anodic peak ([1]; cyclic voltammetry, same set-up, for unconjugated bilirubin distinct at 50 μM and higher) [V] | unconjugated bilirubin bound to albumin (albumin)
1 | O=S1(=O)OC(c2cc(Br)c(O)c(Br)c2)(c2cc(Br)c(O)c(Br)c2)c2ccccc21 [bromophenol blue, 4,4′-(1,1-dioxido-3H-2,1-benzoxathiole-3,3-diyl)bis(2,6-dibromophenol)] | sufficiently displaced the conjugated bilirubin | no displacement of unconjugated bilirubin was observed | higher binding affinity | diminish the bromophenol blue peak at 0.64V | 0.347 | 0.645 | 0.64 | – | – | –
2 | C=CC1=C(C)/C(=C/c2[nH]c(Cc3[nH]c(/C=C4\NC(=O)C(C)=C4C=C)c(C)c3CCC(=O)NCCS(=O)(=O)O)c(CCC(=O)NCCS(=O)(=O)O)c2C)NC1=O [conjugated bilirubin, Bilirubin conjugated ditaurate disodium salt] | – | – | weaker than that of unbound bilirubin | hinders oxidation of bilirubin | – | – | 0.15 | 0.44 | 0.3 | –
3 | C=CC1=C(C)/C(=C/c2[nH]c(Cc3[nH]c(/C=C4\NC(=O)C(C)=C4C=C)c(C)c3CCC(=O)O)c(CCC(=O)O)c2C)NC1=O [unconjugated bilirubin, Bilirubin (mixed isomers)] | – | – | – | – | – | – | – | – | – | roughly 99.9%
